According to patent US9828379B2 (priority 2013, dated 2017):

Columns and labels:
MAGL [1] = target: T1, MAGL (Mus musculus, UniProt O35678); assay: In vitro competitive activity-based protein profiling (Table 2, % inhibition at 1 μM); type: biochemical; details: read-out: % Inhibition at 1 μM MAGL
T1 sequence (O35678 1-303): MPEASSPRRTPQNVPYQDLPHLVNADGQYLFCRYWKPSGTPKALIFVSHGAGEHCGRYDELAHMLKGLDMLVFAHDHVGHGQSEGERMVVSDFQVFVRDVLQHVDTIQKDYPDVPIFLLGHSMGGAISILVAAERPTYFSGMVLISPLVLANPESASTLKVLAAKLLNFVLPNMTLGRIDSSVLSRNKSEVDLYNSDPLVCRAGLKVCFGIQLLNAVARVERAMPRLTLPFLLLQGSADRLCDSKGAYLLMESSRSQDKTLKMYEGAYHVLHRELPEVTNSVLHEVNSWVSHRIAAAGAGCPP
Procedure: After 30 min, FP—Rh (1.0 μL, 50 μM in DMSO) was added and the mixture was incubated for another 30 min at 37° C. Reactions were quenched with SDS loading buffer (50 μL-4×) and run on SDS-PAGE.
Cell lysates were diluted with mock proteomes for use in competitive ABPP experiments.

ABHD6 [2] = target: T2, ABHD6 (Mus musculus, UniProt Q8R2Y0); assay: biochemical; details: in vitro competitive ABPP
T2 sequence (Q8R2Y0 1-336): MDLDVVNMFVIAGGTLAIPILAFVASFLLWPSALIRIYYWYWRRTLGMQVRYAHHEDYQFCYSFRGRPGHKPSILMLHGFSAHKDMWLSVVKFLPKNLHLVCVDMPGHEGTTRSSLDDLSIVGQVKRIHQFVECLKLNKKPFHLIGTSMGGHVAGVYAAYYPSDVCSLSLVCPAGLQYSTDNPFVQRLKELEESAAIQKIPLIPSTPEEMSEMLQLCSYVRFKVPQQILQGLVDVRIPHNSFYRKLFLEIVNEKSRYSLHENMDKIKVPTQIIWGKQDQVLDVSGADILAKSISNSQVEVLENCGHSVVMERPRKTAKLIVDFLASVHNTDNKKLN

FAAH [3] = target: T3, FAAH (Mus musculus, UniProt O08914); assay: biochemical; details: in vitro competitive ABPP
T3 sequence (O08914 1-579): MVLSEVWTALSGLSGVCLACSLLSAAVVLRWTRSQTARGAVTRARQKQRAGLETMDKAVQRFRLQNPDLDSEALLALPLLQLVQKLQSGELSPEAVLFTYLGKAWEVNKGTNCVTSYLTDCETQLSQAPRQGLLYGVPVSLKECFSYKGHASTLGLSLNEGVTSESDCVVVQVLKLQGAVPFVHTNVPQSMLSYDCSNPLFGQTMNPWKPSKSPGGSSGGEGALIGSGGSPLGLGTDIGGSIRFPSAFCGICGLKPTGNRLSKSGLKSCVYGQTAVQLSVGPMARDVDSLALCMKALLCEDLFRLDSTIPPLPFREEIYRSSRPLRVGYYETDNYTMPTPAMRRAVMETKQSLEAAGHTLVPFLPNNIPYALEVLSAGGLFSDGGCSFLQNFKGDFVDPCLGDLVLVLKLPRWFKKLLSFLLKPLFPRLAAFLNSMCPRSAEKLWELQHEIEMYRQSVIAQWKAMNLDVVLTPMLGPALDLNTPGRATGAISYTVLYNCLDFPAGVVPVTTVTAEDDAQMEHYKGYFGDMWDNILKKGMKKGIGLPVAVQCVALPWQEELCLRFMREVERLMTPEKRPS

MAGL [4] = target: T1, MAGL; assay: biochemical; details: mouse; in vitro competitive ABPP; read-out: Mouse (IC50 value, nM) MAGL
ABHD6 [5] = target: T2, ABHD6; assay: In vitro competitive activity-based protein profiling (Table 2, % inhibition at 1 μM); type: biochemical; details: read-out: % Inhibition at 1 μM ABHD6
FAAH [6] = target: T3, FAAH; assay: as above; type: biochemical; details: read-out: % Inhibition at 1 μM FAAH

| Structure (SMILES) | inhibition at 1 µM (MAGL [1]) | IC50 (ABHD6 [2]) | IC50 (FAAH [3]) | IC50 (MAGL [4]) | inhibition at 1 µM (ABHD6 [5]) | inhibition at 1 µM (FAAH [6]) |
| --- | --- | --- | --- | --- | --- | --- |
| O=C(OC(C(F)(F)F)C(F)(F)F)N1CC2CN(Cc3ccc(N4CCOCC4)cc3C(F)F)CC2C1 (stereo not drawn) [Example 200, 1,1,1,3,3,3-hexafluoropropan-2-yl 5-(2-(difluoromethyl)-4-morpholinobenzyl)hexahydropyrrolo[3,4-c]pyrrole-2(1H)-carboxylate] | > 75% | 1000 to 10000 nM | 1000 to 10000 nM | 100 to 1000 nM | < 25% | 25 to 75% |
| O=C(OC(C(F)(F)F)C(F)(F)F)N1CC2CN(Cc3cc(CN4CCCC4)cc(OC(F)(F)F)c3)CC2C1 (stereo not drawn) [Example 185, 1,1,1,3,3,3-hexafluoropropan-2-yl 5-(3-(pyrrolidin-1-ylmethyl)-5-(trifluoromethoxy)benzyl)hexahydropyrrolo[3,4-c]pyrrole-2(1H)-carboxylate] | > 75% | 1000 to 10000 nM | > 10000 nM | 100 to 1000 nM | < 25% | < 25% |
| Cc1c(CN2CC3CN(C(=O)OC(C(F)(F)F)C(F)(F)F)CC3C2)cccc1N1CCN(C)CC1 (stereo not drawn) [Example 154, 1,1,1,3,3,3-hexafluoropropan-2-yl 5-[[2-methyl-3-(4-methylpiperazin-1-yl)phenyl]methyl]-octahydropyrrolo[3,4-c]pyrrole-2-carboxylate] | > 75% | 1000 to 10000 nM | > 10000 nM | 100 to 1000 nM | < 25% | < 25% |
| Cc1c(CN2CC3CN(C(=O)OC(C(F)(F)F)C(F)(F)F)CC3C2)cccc1N1CCC2(CCOC2)C1 (stereo not drawn) [Example 46, 1,1,1,3,3,3-Hexafluoropropan-2-yl 5-[(2-methyl-3-[2-oxa-7-azaspiro[4.4]nonan-7-yl]phenyl)methyl]-octahydropyrrolo[3,4-c]pyrrole-2-carboxylate] | > 75% | 1000 to 10000 nM | 1000 to 10000 nM | < 100 nM | < 25% | 25 to 75% |
| O=C(OC(C(F)(F)F)C(F)(F)F)N1CC2CN(Cc3ccc(Cl)cc3N3CCN4CCC[C@@H]4C3)CC2C1 (stereo partly drawn) [Example 35, 1,1,1,3,3,3-Hexafluoropropan-2-yl 5-(4-chloro-2-((R)-hexahydropyrrolo[1,2-a]pyrazin-2(1H)-yl)benzyl)-hexahydropyrrolo[3,4-c]pyrrole-2(1H)-carboxylate] | > 75% | 1000 to 10000 nM | > 10000 nM | 100 to 1000 nM | < 25% | < 25% |
| CC(=O)N1CCC(c2nn(C(C)C)cc2CN2CC3CN(C(=O)OC(C(F)(F)F)C(F)(F)F)CC3C2)CC1 (stereo not drawn) [Example 55, 1,1,1,3,3,3-Hexafluoropropan-2-yl 5-[[3-(1-acetylpiperidin-4-yl)-1-(propan-2-yl)-1H-pyrazol-4-yl]methyl]-octahydropyrrolo[3,4-c]pyrrole-2-carboxylate] | > 75% | 1000 to 10000 nM | > 10000 nM | 100 to 1000 nM | < 25% | < 25% |
| Cc1cccc(-c2cc(CN3CC4CN(C(=O)OC(C(F)(F)F)C(F)(F)F)CC4C3)n(C)n2)c1 (stereo not drawn) [Example 196, 1,1,1,3,3,3-hexafluoropropan-2-yl 5-((1-methyl-3-(m-tolyl)-1H-pyrazol-5-yl)methyl)hexahydropyrrolo[3,4-c]pyrrole-2(1H)-carboxylate] | > 75% | 1000 to 10000 nM | 1000 to 10000 nM | < 100 nM | < 25% | < 25% |
| CC(C)c1ccc(CN2CC3CN(C(=O)OC(C(F)(F)F)C(F)(F)F)CC3C2)c(N2CCOCC2)c1 (stereo not drawn) [Example 22, 1,1,1,3,3,3-Hexafluoropropan-2-yl 5-[[2-(morpholin-4-yl)-4-(propan-2-yl)phenyl]methyl]-octahydropyrrolo[3,4-c]pyrrole-2-carboxylate] | > 75% | 1000 to 10000 nM | 1000 to 10000 nM | 100 to 1000 nM | < 25% | < 25% |
| CC(=O)N1CCN(c2ccc(CN3CC4CN(C(=O)OC(C(F)(F)F)C(F)(F)F)CC4C3)c(F)c2)CC1 (stereo not drawn) [Example 26, 1,1,1,3,3,3-Hexafluoropropan-2-yl 5-[[4-(4-acetylpiperazin-1-yl)-2-fluorophenyl]methyl]-octahydropyrrolo[3,4-c]pyrrole-2-carboxylate] | > 75% | 1000 to 10000 nM | 1000 to 10000 nM | 100 to 1000 nM | 25 to 75% | < 25% |
| O=C(OC(C(F)(F)F)C(F)(F)F)N1CC2CN(Cc3cccc(Cl)c3N3CCC(F)(F)CC3)CC2C1 (stereo not drawn) [Example 158, 1,1,1,3,3,3-hexafluoropropan-2-yl 5-[[3-chloro-2-(4,4-difluoropiperidin-1-yl)phenyl]methyl]-octahydropyrrolo[3,4-c]pyrrole-2-carboxylate] | > 75% | 1000 to 10000 nM | > 10000 nM | 100 to 1000 nM | < 25% | < 25% |
| O=C(OC(C(F)(F)F)C(F)(F)F)N1CC2CN(Cc3ccc(Cl)cc3N3CCCC3)CC2C1 (stereo not drawn) [Example 19, 1,1,1,3,3,3-Hexafluoropropan-2-yl 5-[[4-chloro-2-(pyrrolidin-1-yl)phenyl]methyl]-octahydropyrrolo[3,4-c]pyrrole-2-carboxylate] | > 75% | 1000 to 10000 nM | 1000 to 10000 nM | < 100 nM | < 25% | 25 to 75% |
| O=C(OC(C(F)(F)F)C(F)(F)F)N1CC2CN(Cc3cc(CN4CCCC4)ccc3OC(F)(F)F)CC2C1 (stereo not drawn) [Example 190, 1,1,1,3,3,3-hexafluoropropan-2-yl 5-(5-(pyrrolidin-1-ylmethyl)-2-(trifluoromethoxy)benzyl)hexahydropyrrolo[3,4-c]pyrrole-2(1H)-carboxylate] | > 75% | 1000 to 10000 nM | 1000 to 10000 nM | 100 to 1000 nM | < 25% | < 25% |
| CCn1ncc(CN2CC3CN(C(=O)OC(C(F)(F)F)C(F)(F)F)CC3C2)c1C(=O)NCC1CC1 (stereo not drawn) [Example 179, 1,1,1,3,3,3-hexafluoropropan-2-yl 5-((5-((cyclopropylmethyl)carbamoyl)-1-ethyl-1H-pyrazol-4-yl)methyl)hexahydropyrrolo[3,4-c]pyrrole-2(1H)-carboxylate] | > 75% | 100 to 1000 nM | > 10000 nM | < 100 nM | 25 to 75% | < 25% |
| CCc1cc(CN2CC3CN(C(=O)OC(C(F)(F)F)C(F)(F)F)CC3C2)n(C2CCOCC2)n1 (stereo not drawn) [Example 156, 1,1,1,3,3,3-hexafluoropropan-2-yl 5-[[3-ethyl-1-(oxan-4-yl)-1H-pyrazol-5-yl]methyl]-octahydropyrrolo[3,4-c]pyrrole-2-carboxylate] | > 75% | 1000 to 10000 nM | 1000 to 10000 nM | < 100 nM | < 25% | < 25% |
| CC(C)n1cc(CN2CC3CN(C(=O)OC(C(F)(F)F)C(F)(F)F)CC3C2)c(-c2ccccc2)n1 (stereo not drawn) [Example 53, 1,1,1,3,3,3-Hexafluoropropan-2-yl 5-[[3-phenyl-1-(propan-2-yl)-1H-pyrazol-4-yl]methyl]-octahydropyrrolo[3,4-c]pyrrole-2-carboxylate] | > 75% | 1000 to 10000 nM | 1000 to 10000 nM | < 100 nM | 25 to 75% | < 25% |
